Legend:
[1] = test system: CEA-specific IgG response; test: ADA against CEA-IL2v in hIgG1 Tg mice over time, ELISA (Example 4, 63 days); type: in vivo, C57BL/6-Tg (hIgG1,k,l) mice; conditions: 40 mg/kg/day via food admix, primary and memory response, samples to day 63, vs vehicle
Procedure: 15-week-old mice C57BL/6-Tg (hIgG1,k,l) and C57BL/6 wild type mixed gender were purchased from Taconic (Denmark) and housed at the animal facilities in room with air-conditioned under a 12 hours light/dark cycle in macrolon boxes with enriched environment and free access to water and food. 7×10 μg of CEA-IL2v (Batch no GLI0144-01) were injected at day 0, 4, 7, 11, 14, 18 and 21 for the primary response, and at day 49, 53, 56 and 60 for the memory response. The CEA-112v injections were done subcutaneously in the right flank or the left flank alternatively. The dosage of (2S,4R)-4-[4-(1-methyl-1H-pyrazol-4-yl)-2-trifluoromethyl-benzenesulfonyl]-1-(1-trifluoromethyl-cyclopropanecarbonyl)-pyrrolidine-2-carboxylic acid (1-cyano-cyclopropyl)-amide consumption was 40 mg/kg/day. […]
(§1) Nunc Maxisorp flat-bottom 96 well ELISA plates were coated with 100 μl per well of Humira or CEA-PGLALA respectively at 5 μg/mL in NaHCO3100 mM buffer overnight at +4° C. […] 100 μl of substrate P-nitrophenyl phosphate ready to use (Life Technologies, Cat no 002212) were added per well and after 10 min incubation at room temperature, the OD at 405 nm was read as an end-point measurement with a Versamax ELISA reader.

[2] = test system: adalimumab-specific IgG response; test: ADA against adalimumab in hIgG1 Tg mice over time, ELISA (Example 3, 63 days); type: in vivo, C57BL/6-Tg (hIgG1,k,l) mice; conditions: 40 mg/kg/day via food admix from one day before first immunization until day 28, blood samples to day 56, vs vehicle
Procedure: 15-week-old female mice C57BL/6-Tg (hIgG1,k,l) were purchased from Taconic (Denmark) and housed at the animal facilities in room with air-conditioned under a 12 hours light/dark cycle in macrolon boxes with enriched environment and free access to water and food. 7×10 μg of Humira (Adalimumab, Abbvie Germany GmbH) were injected at day 0, 4, 7, 11, 14, 18 and 21 subcutaneously in the right flank or the left flank alternatively. The dosage of (2S,4R)-4-[4-(1-methyl-1H-pyrazol-4-yl)-2-trifluoromethyl-benzenesulfonyl]-1-(1-trifluoromethyl-cyclopropanecarbonyl)-pyrrolidine-2-carboxylic acid (1-cyano-cyclopropyl)-amide consumption was 40 mg/kg/day. (2S,4R)-4-[4-(1-methyl-1H-pyrazol-4-yl)-2-trifluoromethyl-benzenesulfonyl]-1-(1-trifluoromethyl-cyclopropanecarbonyl)-pyrrolidine-2-carboxylic acid (1-cyano-cyclopropyl)-amide was given via food admix (Ssniff Spezialdiäten, Germany) daily from one day before the first Humira immunization until day 28. […]
as §1

**Q.** With `Cn1cc(-c2ccc(S(=O)(=O)[C@@H]3C[C@@H](C(=O)NC4(C#N)CC4)N(C(=O)C4(C(F)(F)F)CC4)C3)c(C(F)(F)F)c2)cn1` [cathepsin S inhibitor, (2S,4R)-4-[4-(1-methyl-1H-pyrazol-4-yl)-2-trifluoromethyl-benzenesulfonyl]-1-(1-trifluoromethyl-cyclopropanecarbonyl)-pyrrolidine-2-carboxylic acid (1-cyano-cyclopropyl)-amide] as the molecule, how does the “ADA to CEA-IL2v (CEA-specific IgG) over time” value [1] read?
**A.** The value was “prevents ADA to CEA-IL2v in hIgG transgenic mice”.

**Q.** And the “ADA to adalimumab (adalimumab-specific IgG) over time” value [2]?
**A.** The value was “reduces ADA to adalimumab”.
